How the values were obtained:
IKKε = IKKε (Homo sapiens (Human), UniProt Q14164); assay: TR-FRET kinase assay, IKKε; type: biochemical; settings: full length recombinant IKKε 0.3 nM, 2x Km ATP, 1 μM peptide, 240 min at 25° C.; geometric mean of minimum four determinations
Excerpt: Biological Assay for TBK1 and IKKs:

TBK1 = TBK1 (Homo sapiens (Human), UniProt Q9UHD2); assay: TR-FRET kinase assay, TBK1; settings: read-out: TBK1-IC50; full length recombinant TBK1 2.5 nM, 2x Km ATP, 1 μM peptide, 240 min at 25° C.; geometric mean of minimum four determinations
TBK1, sequence (Q9UHD2 whole entry): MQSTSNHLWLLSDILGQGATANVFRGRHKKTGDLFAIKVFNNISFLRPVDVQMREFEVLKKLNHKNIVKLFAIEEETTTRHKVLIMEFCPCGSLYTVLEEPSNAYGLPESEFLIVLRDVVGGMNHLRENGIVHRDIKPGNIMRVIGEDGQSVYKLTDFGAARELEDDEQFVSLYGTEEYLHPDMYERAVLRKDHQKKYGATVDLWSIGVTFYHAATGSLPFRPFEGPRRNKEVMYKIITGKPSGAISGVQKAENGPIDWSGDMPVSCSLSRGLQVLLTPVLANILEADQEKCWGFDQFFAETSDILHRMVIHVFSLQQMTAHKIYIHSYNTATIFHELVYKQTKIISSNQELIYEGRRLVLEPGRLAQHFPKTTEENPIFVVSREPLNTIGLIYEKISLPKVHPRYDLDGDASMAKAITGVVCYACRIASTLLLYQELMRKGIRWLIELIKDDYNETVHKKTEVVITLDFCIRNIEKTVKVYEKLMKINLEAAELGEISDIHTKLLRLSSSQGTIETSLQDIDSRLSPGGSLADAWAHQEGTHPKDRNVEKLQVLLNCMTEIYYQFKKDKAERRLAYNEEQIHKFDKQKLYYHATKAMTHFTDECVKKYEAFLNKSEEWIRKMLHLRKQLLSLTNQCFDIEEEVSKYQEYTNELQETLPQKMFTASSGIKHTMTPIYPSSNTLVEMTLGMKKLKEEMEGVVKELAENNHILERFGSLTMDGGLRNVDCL

IKKε, sequence (Q14164 whole entry): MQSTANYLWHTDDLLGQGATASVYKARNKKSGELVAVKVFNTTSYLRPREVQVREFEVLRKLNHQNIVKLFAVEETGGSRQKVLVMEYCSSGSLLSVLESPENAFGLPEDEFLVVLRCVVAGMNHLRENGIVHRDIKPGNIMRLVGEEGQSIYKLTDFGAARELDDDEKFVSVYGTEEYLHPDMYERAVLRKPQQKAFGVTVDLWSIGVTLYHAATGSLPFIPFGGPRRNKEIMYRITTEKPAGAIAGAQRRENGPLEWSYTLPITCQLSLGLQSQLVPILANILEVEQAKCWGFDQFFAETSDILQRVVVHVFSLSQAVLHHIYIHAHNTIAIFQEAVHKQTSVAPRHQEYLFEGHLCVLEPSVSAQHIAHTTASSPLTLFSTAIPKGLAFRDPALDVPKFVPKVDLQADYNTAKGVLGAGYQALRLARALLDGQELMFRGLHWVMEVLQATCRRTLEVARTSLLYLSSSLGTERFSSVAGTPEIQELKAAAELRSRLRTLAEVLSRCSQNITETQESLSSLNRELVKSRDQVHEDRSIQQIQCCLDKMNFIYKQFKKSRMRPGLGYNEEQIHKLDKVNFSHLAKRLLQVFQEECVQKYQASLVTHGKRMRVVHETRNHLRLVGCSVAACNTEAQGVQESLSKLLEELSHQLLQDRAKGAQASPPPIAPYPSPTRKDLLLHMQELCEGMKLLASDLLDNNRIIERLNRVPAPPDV

Row | Compound | IC50 (IKKε) [nM] | IC50 (TBK1) [nM]
1 | N#Cc1cc(-c2ccnc3[nH]c(-c4ccc(N5CCOCC5)cc4)cc23)ccc1N1CCCC1 [Example 49, 5-(2-(4-morpholinophenyl)-1H-pyrrolo[2,3-b]pyridin-4-yl)-2-(pyrrolidin-1-yl)benzonitrile] | > 78 | 7.05
2 | CN1CCN(c2ccc(-c3cc4c(-c5ccc(OC6CCOCC6)c(C#N)c5)ccnc4[nH]3)cc2)CC1 [Example 82, 5-(2-(4-(4-methylpiperazin-1-yl)phenyl)-1H-pyrrolo[2,3-b]pyridin-4-yl)-2-((tetrahydro-2H-pyran-4-yl)oxy)benzonitrile] | 0.29 | 0.9
3 | N#Cc1cc(-c2ccnc3[nH]c(-c4cnn(C5CCOCC5)c4)cc23)ccc1OC1CCOCC1 [Example 51, 5-(2-(1-(tetrahydro-2H-pyran-4-yl)-1H-pyrazol-4-yl)-1H-pyrrolo[2,3-b]pyridin-4-yl)-2-((tetrahydro-2H-pyran-4-yl)oxy)benzonitrile] | 2.98 | 3.54
4 | N#Cc1cc(-c2ccnc3[nH]c(-c4ccc(N5CCOCC5)cc4)cc23)ccc1OC1CCOCC1 [Example 48, 5-(2-(4-morpholinophenyl)-1H-pyrrolo[2,3-b]pyridin-4-yl)-2-((tetrahydro-2H-pyran-4-yl)oxy)benzonitrile] | 11.5 | 3.26
5 | N#Cc1cc(-c2ccnc3[nH]c(-c4ccc(N5CCOCC5)cc4)cc23)ccc1O[C@@H]1CCNC1 [Example 14, (R)-5-(2-(4-morpholinophenyl)-1H-pyrrolo[2,3-b]pyridin-4-yl)-2-(pyrrolidin-3-yloxy)benzonitrile] | 20.8 | 6.86
6 | N#Cc1cc(-c2ccnc3[nH]c(-c4cccnc4)cc23)ccc1OC1CCOCC1 [Example 7, 5-(2-(pyridin-3-yl)-1H-pyrrolo[2,3-b]pyridin-4-yl)-2-((tetrahydro-2H-pyran-4-yl)oxy)benzonitrile] | 17 | 11.8
7 | N#CCC(=O)N1CC[C@H](Oc2ccc(-c3ccnc4[nH]c(-c5ccc(N6CCOCC6)cc5)cc34)cc2C#N)C1 [Example 24, (S)-2-((1-(2-cyanoacetyl)pyrrolidin-3-yl)oxy)-5-(2-(4-morpholinophenyl)-1H-pyrrolo[2,3-b]pyridin-4-yl)benzonitrile] | 321 | 56.8
8 | N#Cc1cc(-c2ncnc3[nH]c(-c4cccc(N5CCOCC5)c4)nc23)ccc1OC1CCOCC1 [Example 211, 5-(8-(3-morpholinophenyl)-9H-purin-6-yl)-2-((tetrahydro-2H-pyran-4-yl)oxy)benzonitrile] | 25.3 | 9.57
9 | N#Cc1cc(-c2ccnc3[nH]c(-c4ccc(N5CCOCC5)cc4)cc23)cnc1OC1CCOCC1 [Example 29, 5-(2-(4-morpholinophenyl)-1H-pyrrolo[2,3-b]pyridin-4-yl)-2-((tetrahydro-2H-pyran-4-yl)oxy)nicotinonitrile] | 242 | 14.8

Results, then the compound that gave them:

Row | IC50 (IKKε) [nM] | IC50 (TBK1) [nM] | Compound
10 | 2.33 | 1.32 | N#Cc1cc(-c2ncnc3[nH]c(-c4ccc(C(=O)N5CCOCC5)cc4)cc23)ccc1OC1CCN(C(=O)CO)CC1 [Example 160, 2-((1-(2-Hydroxyacetyl)piperidin-4-yl)oxy)-5-(6-(4-(morpholine-4-carbonyl)phenyl)-7H-pyrrolo[2,3-d]pyrimidin-4-yl)benzonitrile]
11 | 8.18 | 3.84 | CC(C)(O)c1ccc(-c2cc3c(-c4cc(C#N)c(OC5CCOCC5)cn4)ccnc3[nH]2)cc1 [Example 170, 2-(2-(4-(2-Hydroxypropan-2-yl)phenyl)-1H-pyrrolo[2,3-b]pyridin-4-yl)-5-((tetrahydro-2H-pyran-4-yl)oxy)isonicotinonitrile]
12 | 25 | 3.68 | COc1cc(-c2cc3c(-c4ccc(OC5CCS(=O)(=O)CC5)c(C#N)c4)ncnc3[nH]2)ccc1N1CCN(C2COC2)CC1 [Example 139, 2-((1,1-dioxidotetrahydro-2H-thiopyran-4-yl)oxy)-5-(6-(3-methoxy-4-(4-(oxetan-3-yl)piperazin-1-yl)phenyl)-7H-pyrrolo[2,3-d]pyrimidin-4-yl)benzonitrile]
13 | 69.8 | 103 | CN(C)C(=O)/C=C/c1cc2c(-c3ccc(OC4CCOCC4)c(C#N)c3)ccnc2[nH]1 [Example 179, 3-(4-(3-cyano-4-((tetrahydro-2H-pyran-4-yl)oxy)phenyl)-1H-pyrrolo[2,3-b]pyridin-2-yl)-N,N-dimethylacrylamide]
14 | 18.3 | 7.82 | N#Cc1cc(-c2ccnc3[nH]c(C4=CCN(C5COC5)C4)cc23)ccc1OC1CCOCC1 [Example 178, 5-(2-(1-(oxetan-3-yl)-2,5-dihydro-1H-pyrrol-3-yl)-1H-pyrrolo[2,3-b]pyridin-4-yl)-2-((tetrahydro-2H-pyran-4-yl)oxy)benzonitrile]
15 | 1.21 | 1.85 | CN1CCN(c2ccc(-c3nc4c(-c5ccc(OC6CCOCC6)c(C#N)c5)ccnc4[nH]3)cc2)CC1 [Example 306, 5-(2-(4-(4-methylpiperazin-1-yl)phenyl)-3H-imidazo[4,5-b]pyridin-7-yl)-2-((tetrahydro-2H-pyran-4-yl)oxy)benzonitrile]
16 | 10.8 | 3.2 | N#Cc1cc(-c2ccnc3[nH]c(-c4ccc(N5CCOCC5)cc4)nc23)ccc1OC1CCOCC1 [Example 305, 5-(2-(4-morpholinophenyl)-3H-imidazo[4,5-b]pyridin-7-yl)-2-((tetrahydro-2H-pyran-4-yl)oxy)benzonitrile]
17 | 4.96 | 1.62 | N#Cc1cc(-c2ncnc3[nH]c(-c4ccc(C(=O)N5CCOCC5)cc4)cc23)ccc1OC1CCOCC1 [Example 186, 5-(6-(4-(morpholine-4-carbonyl)phenyl)-7H-pyrrolo[2,3-d]pyrimidin-4-yl)-2-((tetrahydro-2H-pyran-4-yl)oxy)benzonitrile]
18 | 1.8 | 1.24 | N#Cc1cc(-c2ncnc3[nH]c(-c4ccc(OCCN5CCCC5)cc4)cc23)ccc1OC1CCOCC1 [Example 226, 5-(6-(4-(2-(pyrrolidin-1-yl)ethoxy)phenyl)-7H-pyrrolo[2,3-d]pyrimidin-4-yl)-2-((tetrahydro-2H-pyran-4-yl)oxy)benzonitrile]
19 | 8.46 | 1.69 | CC1(C)C(=O)Nc2cc(-c3cc4c(-c5ccc(OC6CCOCC6)c(C#N)c5)ncnc4[nH]3)ccc21 [Example 188, 5-(6-(3,3-dimethyl-2-oxoindolin-6-yl)-7H-pyrrolo[2,3-d]pyrimidin-4-yl)-2-((tetrahydro-2H-pyran-4-yl)oxy)benzonitrile]
20 | 35.5 | 14.8 | N#Cc1cc(-c2ccnc3[nH]c(C4=CCN(C(=O)CO)C4)cc23)ccc1OC1CCOCC1 [Example 182, 5-(2-(1-(2-hydroxyacetyl)-2,5-dihydro-1H-pyrrol-3-yl)-1H-pyrrolo[2,3-b]pyridin-4-yl)-2-((tetrahydro-2H-pyran-4-yl)oxy)benzonitrile]
21 | 1.03 | 0.644 | N#Cc1cc(-c2ncnc3[nH]c(-c4ccc(N5CCNCC5)cc4)cc23)ccc1OC1CCOCC1 [Example 200, 5-(6-(4-(piperazin-1-yl)phenyl)-7H-pyrrolo[2,3-d]pyrimidin-4-yl)-2-((tetrahydro-2H-pyran-4-yl)oxy)benzonitrile]
